Laboratory results: US10681909B2, “Herbicidal triazoles” (FMC Corporation, priority 2014, dated 2020)

Legend:
morningglory [1] = experiment: Test A postemergence; assay type: in vivo, Ipomoea spp.; conditions: 0 to 100 scale (0 no effect, 100 complete control), approx. 10 d
From the text: (§1) Seeds of plant species selected from barnyardgrass (Echinochloa crus-galli), crabgrass, large (large crabgrass, Digitaria sanguinalis), kochia (Kochia scoparia), ragweed (common ragweed, Ambrosia elatior), foxtail, giant (giant foxtail, Setaria faberii), morningglory (Ipomoea spp.), pigweed (Amaranthus retroflexus), velvetleaf (Abutilon theophrasti), ryegrass, Italian (Italian ryegrass, Lolium multiflorum), wheat (Triticum aestivum), and corn (Zea mays) were planted into a blend of loam soil and sand and treated preemergence with a directed soil spray using test chemicals formulated in a non-phytotoxic solvent mixture which included a surfactant. At the same time, plants selected from these crop and weed species and also blackgrass (Alopecurus myosuroides), and galium (catchweed bedstraw, Galium aparine), were planted in pots containing the same blend of loam soil and sand and treated with postemergence applications of test chemicals formulated in the same manner. Plants ranged in height from 2 to 10 cm and were in the one- to two-leaf stage for the postemergence treatment. […] A dash (-) response means no test result.

barnyardgrass [2] = experiment: Test B flooded paddy test; assay type: in vivo, Echinochloa crus-galli; conditions: applied to paddy water at 2-leaf stage, visual rating after 13 to 15 d, scale 0 (no effect) to 100 (complete control)
From the text: (§2) At time of treatment, test pots were flooded to 3 cm above the soil surface, treated by application of test compounds directly to the paddy water, and then maintained at that water depth for the duration of the test. Treated plants and controls were maintained in a greenhouse for 13 to 15 d, after which time all species were compared to controls and visually evaluated. […] A dash (-) response means no test result.

morningglory [3] = experiment: Test A preemergence; assay type: in vivo, Ipomoea spp.; conditions: 0 to 100 scale (0 no effect, 100 complete control)
From the text: as §1

rice = experiment: Test B flooded paddy test; assay type: in vivo, Oryza sativa; conditions: applied to paddy water at 2-leaf stage, visual rating after 13 to 15 d, scale 0 (no effect) to 100 (complete control)
From the text: as §2

sedge, umbrella = experiment: Test B flooded paddy test; assay type: in vivo, Cyperus difformis; conditions: applied to paddy water at 2-leaf stage, visual rating after 13 to 15 d, scale 0 (no effect) to 100 (complete control)
From the text: as §2

crabgrass, large [4] = experiment: Test A preemergence; assay type: in vivo, Digitaria sanguinalis; conditions: 0 to 100 scale (0 no effect, 100 complete control)
From the text: as §1

corn [5] = experiment: Test A postemergence; assay type: in vivo, Zea mays; conditions: 0 to 100 scale (0 no effect, 100 complete control), approx. 10 d
In short: (§3)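 Pre- and postemergence spray tests in a loam soil–sand mixture: seeded soil received a directed spray, while established seedlings 2–10 cm high at the one- to two-leaf stage were treated over the top. Compounds were carried in non-phytotoxic solvent with surfactant.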

foxtail, giant [6] = experiment: Test A postemergence; assay type: in vivo, Setaria faberii; conditions: 0 to 100 scale (0 no effect, 100 complete control), approx. 10 d
In short: as §3

crabgrass, large [7] = experiment: Test A postemergence; assay type: in vivo, Digitaria sanguinalis; conditions: 0 to 100 scale (0 no effect, 100 complete control), approx. 10 d
From the text: as §1

wheat [8] = experiment: Test A preemergence; assay type: in vivo, Triticum aestivum; conditions: 0 to 100 scale (0 no effect, 100 complete control)
From the text: as §1

pigweed [9] = experiment: Test A preemergence; assay type: in vivo, Amaranthus retroflexus; conditions: 0 to 100 scale (0 no effect, 100 complete control)
In short: as §3

velvetleaf [10] = experiment: Test A preemergence; assay type: in vivo, Abutilon theophrasti; conditions: 0 to 100 scale (0 no effect, 100 complete control)
From the text: as §1

barnyardgrass [11] = experiment: Test A postemergence; assay type: in vivo, Echinochloa crus-galli; conditions: 0 to 100 scale (0 no effect, 100 complete control), approx. 10 d
In short: as §3

velvetleaf [12] = experiment: Test A postemergence; assay type: in vivo, Abutilon theophrasti; conditions: 0 to 100 scale (0 no effect, 100 complete control), approx. 10 d
From the text: as §1

barnyardgrass [13] = experiment: Test A preemergence; assay type: in vivo, Echinochloa crus-galli; conditions: 0 to 100 scale (0 no effect, 100 complete control)
In short: as §3

pigweed [14] = experiment: Test A postemergence; assay type: in vivo, Amaranthus retroflexus; conditions: 0 to 100 scale (0 no effect, 100 complete control), approx. 10 d
In short: as §3

ducksalad = experiment: Test B flooded paddy test; assay type: in vivo, Heteranthera limosa; conditions: applied to paddy water at 2-leaf stage, visual rating after 13 to 15 d, scale 0 (no effect) to 100 (complete control)
From the text: as §2

wheat [15] = experiment: Test A postemergence; assay type: in vivo, Triticum aestivum; conditions: 0 to 100 scale (0 no effect, 100 complete control), approx. 10 d
In short: as §3

foxtail, giant [16] = experiment: Test A preemergence; assay type: in vivo, Setaria faberii; conditions: 0 to 100 scale (0 no effect, 100 complete control)
In short: as §3

corn [17] = experiment: Test A preemergence; assay type: in vivo, Zea mays; conditions: 0 to 100 scale (0 no effect, 100 complete control)
From the text: as §1

| SMILES | Plant response rating, Morningglory (morningglory [1]; 125 g ai/ha) | Plant response rating, Morningglory (morningglory [1]; 500 g ai/ha) | Plant response rating, Morningglory (morningglory [3]; 125 g ai/ha) | Plant response rating, Morningglory (morningglory [3]; 500 g ai/ha, approx. 10 d) | Plant response rating, Crabgrass, Large (crabgrass, large [4]; 125 g ai/ha) | Plant response rating, Crabgrass, Large (crabgrass, large [4]; 500 g ai/ha, approx. 10 d) | Plant response rating, Corn (corn [5]; 125 g ai/ha) | Plant response rating, Corn (corn [5]; 500 g ai/ha) | Plant response rating, Foxtail, Giant (foxtail, giant [6]; 125 g ai/ha) | Plant response rating, Foxtail, Giant (foxtail, giant [6]; 500 g ai/ha) | Plant response rating, Crabgrass, Large (crabgrass, large [7]; 125 g ai/ha) | Plant response rating, Crabgrass, Large (crabgrass, large [7]; 500 g ai/ha) | Plant response rating, Wheat (wheat [8]; 125 g ai/ha) | Plant response rating, Wheat (wheat [8]; 500 g ai/ha, approx. 10 d) | Plant response rating, Pigweed (pigweed [9]; 125 g ai/ha) | Plant response rating, Pigweed (pigweed [9]; 500 g ai/ha, approx. 10 d) | Plant response rating, Velvetleaf (velvetleaf [10]; 125 g ai/ha) | Plant response rating, Velvetleaf (velvetleaf [10]; 500 g ai/ha, approx. 10 d) | Plant response rating, Barnyardgrass (barnyardgrass [11]; 125 g ai/ha) | Plant response rating, Barnyardgrass (barnyardgrass [11]; 500 g ai/ha) | also measured |
| --- | --- | --- | --- | --- | --- | --- | --- | --- | --- | --- | --- | --- | --- | --- | --- | --- | --- | --- | --- | --- | --- |
| CCn1nc(-c2ccc(F)cc2)nc1Cc1ccnc(C(F)(F)F)c1 [Compound 18] | 50 | 100 | 10 | 40 | 90 | 100 | 30 | 40 | 50 | 90 | 60 | 90 | 0 | 0 | 100 | 100 | 10 | 70 | 30 | 60 | Plant response rating, Barnyardgrass, Flood (barnyardgrass [2]; 125 g ai/ha): 0; Plant response rating, Rice, Flood (rice; 125 g ai/ha): 0; Plant response rating, Sedge, Umbrella, Flood (sedge, umbrella; 125 g ai/ha): 70; Plant response rating, Velvetleaf (velvetleaf [12]; 125 g ai/ha): 30; Plant response rating, Velvetleaf (velvetleaf [12]; 500 g ai/ha): 80; Plant response rating, Barnyardgrass (barnyardgrass [13]; 125 g ai/ha): 10; Plant response rating, Barnyardgrass (barnyardgrass [13]; 500 g ai/ha, approx. 10 d): 60; Plant response rating, Pigweed (pigweed [14]; 125 g ai/ha): 100; Plant response rating, Pigweed (pigweed [14]; 500 g ai/ha): 100; Plant response rating, Ducksalad, Flood (ducksalad; 125 g ai/ha): 70; Plant response rating, Wheat (wheat [15]; 125 g ai/ha): 20; Plant response rating, Wheat (wheat [15]; 500 g ai/ha): 30; Plant response rating, Foxtail, Giant (foxtail, giant [16]; 125 g ai/ha): 90; Plant response rating, Foxtail, Giant (foxtail, giant [16]; 500 g ai/ha, approx. 10 d): 100; Plant response rating, Corn (corn [17]; 125 g ai/ha): 0; Plant response rating, Corn (corn [17]; 500 g ai/ha, approx. 10 d): 0 |
| CSc1nc(-c2ccc(F)cc2)nn1Cc1ccnc(C(F)(F)F)c1 [Compound 21] | 20 | 30 | 0 | 0 | 10 | 80 | 10 | 20 | 10 | 20 | 20 | 20 | 0 | 0 | 10 | 90 | 0 | 0 | 0 | 10 | Plant response rating, Barnyardgrass, Flood (barnyardgrass [2]; 250 g ai/ha): 80; Plant response rating, Rice, Flood (rice; 250 g ai/ha): 25; Plant response rating, Sedge, Umbrella, Flood (sedge, umbrella; 250 g ai/ha): 90; Plant response rating, Velvetleaf (velvetleaf [12]; 125 g ai/ha): 10; Plant response rating, Velvetleaf (velvetleaf [12]; 500 g ai/ha): 20; Plant response rating, Barnyardgrass (barnyardgrass [13]; 125 g ai/ha): 0; Plant response rating, Barnyardgrass (barnyardgrass [13]; 500 g ai/ha, approx. 10 d): 0; Plant response rating, Pigweed (pigweed [14]; 125 g ai/ha): 30; Plant response rating, Pigweed (pigweed [14]; 500 g ai/ha): 80; Plant response rating, Ducksalad, Flood (ducksalad; 250 g ai/ha): 95; Plant response rating, Wheat (wheat [15]; 125 g ai/ha): 0; Plant response rating, Wheat (wheat [15]; 500 g ai/ha): 10; Plant response rating, Foxtail, Giant (foxtail, giant [16]; 125 g ai/ha): 0; Plant response rating, Foxtail, Giant (foxtail, giant [16]; 500 g ai/ha, approx. 10 d): 60; Plant response rating, Corn (corn [17]; 125 g ai/ha): 0; Plant response rating, Corn (corn [17]; 500 g ai/ha, approx. 10 d): 0 |
| CCCn1nc(-c2ccc(F)cc2)nc1C(=O)c1ccnc(C(F)(F)F)c1 [Compound 20] | 10 | 10 | 0 | 20 | 20 | 100 | 20 | 20 | 10 | 10 | 20 | 10 | 0 | 20 | 20 | 90 | 0 | 0 | 0 | 20 | Plant response rating, Barnyardgrass, Flood (barnyardgrass [2]; 125 g ai/ha): 0; Plant response rating, Rice, Flood (rice; 125 g ai/ha): 0; Plant response rating, Sedge, Umbrella, Flood (sedge, umbrella; 125 g ai/ha): 0; Plant response rating, Velvetleaf (velvetleaf [12]; 125 g ai/ha): 0; Plant response rating, Velvetleaf (velvetleaf [12]; 500 g ai/ha): 40; Plant response rating, Barnyardgrass (barnyardgrass [13]; 125 g ai/ha): 0; Plant response rating, Barnyardgrass (barnyardgrass [13]; 500 g ai/ha, approx. 10 d): 80; Plant response rating, Pigweed (pigweed [14]; 125 g ai/ha): 40; Plant response rating, Pigweed (pigweed [14]; 500 g ai/ha): 90; Plant response rating, Ducksalad, Flood (ducksalad; 125 g ai/ha): 0; Plant response rating, Wheat (wheat [15]; 125 g ai/ha): 20; Plant response rating, Wheat (wheat [15]; 500 g ai/ha): 30; Plant response rating, Foxtail, Giant (foxtail, giant [16]; 125 g ai/ha): 80; Plant response rating, Foxtail, Giant (foxtail, giant [16]; 500 g ai/ha, approx. 10 d): 90; Plant response rating, Corn (corn [17]; 125 g ai/ha): 0; Plant response rating, Corn (corn [17]; 500 g ai/ha, approx. 10 d): 0 |
